Data taken from PubChem BioAssay (NCI).
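Values below derive from 48-hour exposures of cells grown in 96-well plates, with endpoints linearly interpolated between the two concentrations bracketing the appropriate inhibition level. At the GI50, growth is halved. TGI: concentration producing complete growth inhibition.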

How the values were obtained:
Experiment in all cases: NCI-60 cell line screen, 48 h
IGROV1 ovarian = system: IGROV1 ovarian
RPMI-8226 leukemia = system: RPMI-8226 leukemia
A498 renal = system: A498 renal
MDA-MB-231 breast = system: MDA-MB-231 breast
HS 578T breast = system: HS 578T breast
HT29 colon = system: HT29 colon
RXF 393 renal = system: RXF 393 renal
PC-3 prostate = system: PC-3 prostate
SN12C renal = system: SN12C renal
TK-10 renal = system: TK-10 renal

| Compound | GI50 (IGROV1 ovarian) [µM] | TGI (IGROV1 ovarian) [µM] | GI50 (RPMI-8226 leukemia) [µM] | TGI (RPMI-8226 leukemia) [µM] | GI50 (A498 renal) [µM] | TGI (A498 renal) [µM] | GI50 (MDA-MB-231 breast) [µM] | TGI (MDA-MB-231 breast) [µM] | GI50 (HS 578T breast) [µM] | TGI (HS 578T breast) [µM] | GI50 (HT29 colon) [µM] | TGI (HT29 colon) [µM] | GI50 (RXF 393 renal) [µM] | TGI (RXF 393 renal) [µM] | GI50 (PC-3 prostate) [µM] | TGI (PC-3 prostate) [µM] | GI50 (SN12C renal) [µM] | TGI (SN12C renal) [µM] | GI50 (TK-10 renal) [µM] | TGI (TK-10 renal) [µM] |
| --- | --- | --- | --- | --- | --- | --- | --- | --- | --- | --- | --- | --- | --- | --- | --- | --- | --- | --- | --- | --- |
| COc1ccc(/C=C(\C)[N+](=O)[O-])cc1OC | 2.16 | 5.51 | 2.3 | 5.59 | 4.51 | 18.5 | 2.33 | 6.21 | 3.5 | 15.9 | 2.2 | 4.43 | 1.72 | 3.18 | 2.75 | 7.07 | 2.72 | 8.23 | 1.55 | 3.12 |
| NNc1nnc(-c2nnc(NN)o2)o1 | – | > 10 | – | > 10 | – | > 10 | – | > 10 | – | > 10 | – | > 10 | – | > 10 | – | > 10 | – | > 10 | – | > 10 |
| CN1CCc2nc3sc(C(N)=O)c(N)c3c(-c3cccs3)c2C1 | 5.16 | > 100 | 4.41 | > 100 | 2.58 | 7.27 | 4.77 | > 100 | 3.07 | 21.7 | 3.11 | 70.9 | 1.11 | 3.63 | 4.58 | > 100 | 2.69 | > 100 | 3.32 | 13.1 |
| FC(F)(F)c1cccc(-c2nn3ncccc3c2-c2ccnc(Nc3ccc4c(c3)OCCO4)n2)c1 | 5.38 | > 22.2 | 7.88 | > 25 | 9.59 | > 25 | 9.02 | > 25 | 16.4 | > 25 | 7.32 | > 25 | 6.83 | > 25 | 10.5 | > 25 | 11.7 | > 25 | 8.49 | > 25 |
| COc1ccc(Nc2ccnc(N3CCN(c4ccnc5cc(Cl)ccc45)CC3)n2)cc1 | 0.696 | – | 1.04 | 3.88 | 0.342 | 4.17 | 1.51 | > 29.8 | 1.4 | 9.06 | 0.542 | 4.92 | 1.31 | 6.6 | 0.705 | 7.25 | 1.67 | > 100 | 2.18 | 7.95 |
| c1cc(N2CCN(c3ccc(C4=NCCCN4)cc3)CC2)ccc1C1=NCCCN1 | > 100 | > 100 | 23.8 | > 100 | 29.2 | > 100 | > 62.6 | > 100 | > 58.7 | > 100 | > 53.2 | > 100 | > 35.8 | > 100 | > 52.7 | > 100 | > 100 | > 100 | > 69.4 | > 100 |
| CCCCNc1nc(NC2OCC(OC(C)=O)C(OC(C)=O)C2OC(C)=O)c(N=O)c(=O)n1C (configuration not stated) | – | > 10 | – | > 10 | – | > 10 | – | > 10 | – | > 10 | – | > 10 | – | > 10 | – | > 10 | – | > 10 | – | > 10 |
| COc1cccc(Oc2ccccc2NC(=O)CNC(=O)c2cccc3ccccc23)c1 | 1.04 | > 25 | 0.953 | 13.7 | 0.115 | 2.11 | 0.776 | 7.68 | 0.381 | > 25 | 0.11 | 1.04 | 0.165 | 2.19 | 0.284 | > 25 | 1.44 | > 25 | 1.58 | > 25 |
| C=CCC1(C)CCCN(Cc2ccccc2)C1=O (configuration not stated) | – | 3.41 | – | > 10 | – | 3.91 | – | > 10 | – | > 10 | – | > 10 | – | > 10 | – | > 10 | – | > 10 | – | > 10 |
| O=C(CN1N=C(c2ccc(F)cc2)CCC1=O)Nc1nc2ccccc2s1 | 0.165 | 0.361 | 2.29 | 6.17 | 22.8 | > 100 | 1.24 | 3.47 | 6.75 | 66 | 3.32 | 11.5 | 5.91 | > 55.9 | 9.82 | > 100 | 15.7 | > 100 | > 100 | > 100 |
| CC1c2ccccc2CCN1c1ccc(CO)c(Cl)c1 (configuration not stated) | 0.0488 | 0.307 | 1.94 | 47.5 | 0.0149 | 0.0888 | 15.5 | 58.4 | 21.9 | 70.7 | 0.383 | 25.2 | 1.2 | 23.8 | 19.6 | > 83.5 | 15.3 | > 57 | 0.0346 | 0.187 |
| N#CCCNc1nonc1-c1nc2ccccc2n1CC(=O)c1ccc(NC(=O)[C@@H](N)CCCCN)cc1 | 0.11 | > 100 | 0.0434 | > 100 | 0.0154 | 1.89 | 0.0599 | > 100 | 0.908 | > 100 | 0.0326 | > 33.3 | 0.0353 | > 100 | 0.046 | > 100 | 0.0498 | > 100 | 11.9 | > 100 |
| COc1cc(C(=O)c2cc(C)c3[nH]c4ccc(O)cc4c3c2C)cc(OC)c1OC | 0.0169 | 20.5 | 0.0228 | > 100 | < 0.01 | < 0.0189 | 0.0355 | – | 0.0141 | > 100 | 0.0276 | – | < 0.01 | 3.11 | < 0.02 | > 100 | 0.0415 | > 100 | 4.24 | > 100 |
